Reference: patent US10377719B2, “Trypanosomes inhibitors” (Hoffmann-La Roche Inc., priority 2015, dated 2019)

Tested on: Trypanosoma brucei rhodesiense STIB900
Experiment: Activity against Trypanosoma brucei rhodesiense STIB900 (Alamar Blue assay)
Format: cell-based
Settings: Trypanosoma brucei, 70 h, bloodstream forms of T. b. rhodesiense STIB 900, 70 h incubation
Experimental: Activity Against Trypanosoma brucei Rhodesiense STIB900
This stock was isolated in 1982 from a human patient in Tanzania and after several mouse passages cloned and adapted to axenic culture conditions (Baltz, T., D. Baltz, C. Giroud, and J. Crockett. 1985, Cultivation in a semi-defined medium of animal infective forms of Trypanosoma brucei, T. equiperdum, T. evansi, T. rhodesiense and T. gambiense. EMBO Journal 4:1273-1277). Minimum Essential Medium (50 μl) supplemented with 25 mM HEPES, 1 g/l additional glucose, 1% MEM non-essential amino acids (100×), 0.2 mM 2-mercaptoethanol, 1 mM Na-pyruvate and 15% heat inactivated horse serum was added to each well of a 96-well microtiter plate. Serial drug dilutions of eleven 3-fold dilution steps covering a range from […] were prepared. Then 4×10^3 bloodstream forms of T. b. rhodesiense STIB 900 in 50 μl was added to each well and the plate incubated at 37° C. under a 5% CO2 atmosphere for 70 h. 10 μl Alamar Blue (resazurin, 12.5 mg in 100 ml double-distilled water) was then added to each well and incubation continued for a further 2-4 h (Räz, B., M. Iten, Y. Grether-Buhler, R. Kaminsky, and R. Brun. 1997, The Alamar Blue assay to determine drug sensitivity of African trypanosomes (T.b. rhodesiense and T.b. gambiense) in vitro. Acta Trop 68:139-47). Then the plates were read with a Spectramax Gemini XS microplate fluorometer (Molecular Devices Cooperation, Sunnyvale, Calif., USA) using an excitation wave length of 536 nm and an emission wave length of 588 nm. The IC50 values were calculated by linear regression (Huber, W. Koella, J. C. 1993, A comparison of the three methods of estimating EC50 in studies of drug resistance of malaria parasites. Acta Trop. 55, 257-261) from the sigmoidal dose inhibition curves using SoftmaxPro software (Molecular Devices Cooperation, Sunnyvale, Calif., USA). Melarsoprol is used as control.

Row | SMILES | IC50 [µM]
1 | Cc1cc(C(=O)N[C@@H](Cc2ccc(OC(F)(F)F)c(Cl)c2)C(=O)NC2(C#N)CC2)n(C)n1 [Example 3, (S)—N-(3-(3-chloro-4-(trifluoromethoxy)phenyl)-1-(1-cyanocyclopropylamino)-1-oxopropan-2-yl)-1,3-dimethyl-1H-pyrazole-5-carboxamide] | 0.071
2 | Cn1nc(C(C)(C)C)cc1C(=O)N[C@@H](Cc1ccc(OC(F)(F)F)c(Cl)c1)C(=O)NC1(C#N)CC1 [Example 5, (S)-3-tert-butyl-N-(3-(3-chloro-4-(trifluoromethoxy)phenyl)-1-(1-cyanocyclopropylamino)-1-oxopropan-2-yl)-1-methyl-1H-pyrazole-5-carboxamide] | 4.43
3 | N#CC1(NC(=O)[C@H](Cc2ccc(OC(F)(F)F)c(Cl)c2)NC(=O)c2ccn(-c3ccc(F)cc3)n2)CC1 [Example 6, (S)—N-(3-(3-chloro-4-(trifluoromethoxy)phenyl)-1-(1-cyanocyclopropylamino)-1-oxopropan-2-yl)-1-(4-fluorophenyl)-1H-pyrazole-3-carboxamide] | 0.05
4 | Cc1oc(-c2ccc(Cl)cc2)nc1C(=O)N[C@@H](Cc1ccc(OC(F)(F)F)c(Cl)c1)C(=O)NC1(C#N)CC1 [Example 8, (S)—N-(3-(3-chloro-4-(trifluoromethoxy)phenyl)-1-(1-cyanocyclopropylamino)-1-oxopropan-2-yl)-2-(4-chlorophenyl)-5-methyloxazole-4-carboxamide] | 0.068
5 | N#CC1(NC(=O)[C@H](Cc2ccc(OC(F)(F)F)c(Cl)c2)NC(=O)c2cc(-c3ccc(F)cc3)n[nH]2)CC1 [Example 11, (S)—N-(3-(3-chloro-4-(trifluoromethoxy)phenyl)-1-(1-cyanocyclopropylamino)-1-oxopropan-2-yl)-3-(4-fluorophenyl)-1H-pyrazole-5-carboxamide] | 0.278
6 | COc1ccc(-c2cc(C(=O)N[C@@H](Cc3ccc(OC(F)(F)F)c(Cl)c3)C(=O)NC3(C#N)CC3)[nH]n2)cc1 [Example 12, (S)—N-(3-(3-chloro-4-(trifluoromethoxy)phenyl)-1-(1-cyanocyclopropylamino)-1-oxopropan-2-yl)-3-(4-methoxyphenyl)-1H-pyrazole-5-carboxamide] | 0.162
7 | Cc1nn(-c2ccccc2)nc1C(=O)N[C@@H](Cc1ccc(OC(F)(F)F)c(Cl)c1)C(=O)NC1(C#N)CC1 [Example 14, (S)—N-(3-(3-chloro-4-(trifluoromethoxy)phenyl)-1-(1-cyanocyclopropylamino)-1-oxopropan-2-yl)-5-methyl-2-phenyl-2H-1,2,3-triazole-4-carboxamide] | 0.145
8 | Cn1nc(-c2cccc(Cl)c2)cc1C(=O)N[C@@H](Cc1ccc(OC(F)(F)F)c(Cl)c1)C(=O)NC1(C#N)CC1 [Example 17, (S)—N-(3-(3-chloro-4-(trifluoromethoxy)phenyl)-1-(1-cyanocyclopropylamino)-1-oxopropan-2-yl)-3-(3-chlorophenyl)-1-methyl-1H-pyrazole-5-carboxamide] | 0.413
9 | N#CC1(NC(=O)[C@H](Cc2ccc(OC(F)(F)F)c(Cl)c2)NC(c2nnc(-c3ccc(Br)cc3)o2)C(F)(F)F)CC1 (stereo partly drawn) [Example 19, (2S)-2-[[1-[5-(4-bromophenyl)-1,3,4-oxadiazol-2-yl]-2,2,2-trifluoroethyl]amino]-3-[3-chloro-4-(trifluoromethoxy)phenyl]-N-(1-cyanocyclopropyl)propanamide] | 10.1
10 | N#CC1(NC(=O)[C@H](Cc2ccc(OC(F)(F)F)c(Cl)c2)NC(c2nnc(-c3ccccc3)o2)C(F)(F)F)CC1 (stereo partly drawn) [Example 22, (2S)-3-(3-chloro-4-(trifluoromethoxy)phenyl)-N-(1-cyanocyclopropyl)-2-(2,2,2-trifluoro-1-(5-phenyl-1,3,4-oxadiazol-2-yl)ethylamino)propanamide] | 16.6
11 | CSc1ccc(-n2ncc(C(=O)N[C@@H](Cc3ccc(OC(F)(F)F)c(Cl)c3)C(=O)NC3(C#N)CC3)n2)cc1 [Example 23, N-[(2S)-3-[3-chloro-4-(trifluoromethoxy)phenyl]-1-[(1-cyanocyclopropyl)amino]-1-oxopropan-2-yl]-2-(4-methylsulfanylphenyl)triazole-4-carboxamide] | 0.067
12 | N#CC1(NC(=O)[C@H](Cc2ccc(OC(F)(F)F)c(Cl)c2)NC(=O)c2cnn(-c3ccc(Cl)cc3)n2)CC1 [Example 24, 2-(4-chlorophenyl)-N-[(2S)-3-[3-chloro-4-(trifluoromethoxy)phenyl]-1-[(1-cyanocyclopropyl)amino]-1-oxopropan-2-yl]triazole-4-carboxamide] | 0.022
13 | N#CC1(NC(=O)[C@H](Cc2cccc(Cl)c2)NC(=O)c2cnn(-c3ccc(F)cc3)n2)CC1 [Example 25, N-[(2S)-3-(3-chlorophenyl)-1-[(1-cyanocyclopropyl)amino]-1-oxopropan-2-yl]-2-(4-fluorophenyl)triazole-4-carboxamide] | 1.33

The remaining lines, values ahead:

Row | IC50 [µM] | SMILES
14 | 0.003 | N#CC1(NC(=O)[C@H](Cc2ccc(OC(F)(F)F)c(Cl)c2)NC(=O)c2cc(C(F)(F)F)nn2CC(F)F)CC1 [Example 1, (S)—N-(3-(3-chloro-4-(trifluoromethoxy)phenyl)-1-(1-cyanocyclopropylamino)-1-oxopropan-2-yl)-1-(2,2-difluoroethyl)-3-(trifluoromethyl)-1H-pyrazole-5-carboxamide]
15 | 0.005 | Cn1nc(C(F)(F)F)cc1C(=O)N[C@@H](Cc1ccc(OC(F)(F)F)c(Cl)c1)C(=O)NC1(C#N)CC1 [Example 2, (S)—N-(3-(3-chloro-4-(trifluoromethoxy)phenyl)-1-(1-cyanocyclopropylamino)-1-oxopropan-2-yl)-1-methyl-3-(trifluoromethyl)-1H-pyrazole-5-carboxamide]
16 | 0.005 | Cn1nc(C2CC2)cc1C(=O)N[C@@H](Cc1ccc(OC(F)(F)F)c(Cl)c1)C(=O)NC1(C#N)CC1 [Example 4, (S)—N-(3-(3-chloro-4-(trifluoromethoxy)phenyl)-1-(1-cyanocyclopropylamino)-1-oxopropan-2-yl)-3-cyclopropyl-1-methyl-1H-pyrazole-5-carboxamide]
17 | 0.02 | Cn1nc(-c2ccccc2)cc1C(=O)N[C@@H](Cc1ccc(OC(F)(F)F)c(Cl)c1)C(=O)NC1(C#N)CC1 [Example 7, (S)—N-(3-(3-chloro-4-(trifluoromethoxy)phenyl)-1-(1-cyanocyclopropylamino)-1-oxopropan-2-yl)-1-methyl-3-phenyl-1H-pyrazole-5-carboxamide]
18 | 0.009 | N#CC1(NC(=O)[C@H](Cc2ccc(OC(F)(F)F)c(Cl)c2)NC(=O)c2cnn(-c3ccc(F)cc3)n2)CC1 [Example 9, (S)—N-(3-(3-chloro-4-(trifluoromethoxy)phenyl)-1-(1-cyanocyclopropylamino)-1-oxopropan-2-yl)-2-(4-fluorophenyl)-2H-1,2,3-triazole-4-carboxamide]
19 | 0.013 | N#CC1(NC(=O)[C@H](Cc2ccc(OC(F)(F)F)c(Cl)c2)NC(=O)c2cc(-c3ccccc3Cl)n[nH]2)CC1 [Example 10, (S)—N-(3-(3-chloro-4-(trifluoromethoxy)phenyl)-1-(1-cyanocyclopropylamino)-1-oxopropan-2-yl)-3-(2-chlorophenyl)-1H-pyrazole-5-carboxamide]
20 | 0.003 | N#CC1(NC(=O)[C@H](Cc2ccc(OC(F)(F)F)c(Cl)c2)NC(=O)c2cc(-c3ccccc3)no2)CC1 [Example 13, (S)—N-(3-(3-chloro-4-(trifluoromethoxy)phenyl)-1-(1-cyanocyclopropylamino)-1-oxopropan-2-yl)-3-phenylisoxazole-5-carboxamide]
21 | 0.005 | N#CC1(NC(=O)[C@H](Cc2ccc(OC(F)(F)F)c(Cl)c2)NC(=O)c2noc(-c3cccc(F)c3)n2)CC1 [Example 15, (S)—N-(3-(3-chloro-4-(trifluoromethoxy)phenyl)-1-(1-cyanocyclopropylamino)-1-oxopropan-2-yl)-5-(3-fluorophenyl)-1,2,4-oxadiazole-3-carboxamide]
22 | 0.005 | N#CC1(NC(=O)[C@H](Cc2ccc(OC(F)(F)F)c(Cl)c2)NC(=O)c2cnn(-c3ccccc3)n2)CC1 [Example 16, (S)—N-(3-(3-chloro-4-(trifluoromethoxy)phenyl)-1-(1-cyanocyclopropylamino)-1-oxopropan-2-yl)-2-phenyl-2H-1,2,3-triazole-4-carboxamide]
23 | 0.007 | N#CC1(NC(=O)[C@H](Cc2ccc(OC(F)(F)F)c(Cl)c2)NC(=O)c2noc(-c3cccc(Cl)c3)n2)CC1 [Example 18, (S)—N-(3-(3-chloro-4-(trifluoromethoxy)phenyl)-1-(1-cyanocyclopropylamino)-1-oxopropan-2-yl)-5-(3-chlorophenyl)-1,2,4-oxadiazole-3-carboxamide]

Same assay, conditions: bloodstream forms of T. b. rhodesiense STIB 900, 70 h incubation

Row | IC50 [µM] | SMILES
24 | 16.1 | N#CC1(NC(=O)[C@H](Cc2ccc(OC(F)(F)F)c(Cl)c2)NC(c2nnc(-c3ccc(Br)cc3)o2)C(F)(F)F)CC1 (stereo partly drawn) [Example 20, (2S)-2-(1-(5-(4-bromophenyl)-1,3,4-oxadiazol-2-yl)-2,2,2-trifluoroethylamino)-3-(3-chloro-4-(trifluoromethoxy)phenyl)-N-(1-cyanocyclopropyl)propanamide]
